In brackets after ≈: the same amount, converted by molar mass.
What was measured:
Assay type in all cases: cell-based
Neisseria sp. = assay: Agar-dilution MIC; settings: Table 10
Method: The test results are recorded in Table 10, which follows.

Staphylococcus aureus = assay: Disc-plate sensitivity procedure; settings: Table 8
Enterobacter aerogenes = assay: Agar-dilution MIC; settings: Table 17; 24 hours; Enterobacter aerogenes C32

Structure (SMILES) | MIC (Neisseria sp.; strain L. Nance) | MIC (Neisseria sp.; strain Mitchell) | MIC (Neisseria sp.; strain Sanders) | MIC (Neisseria sp.; strain Schultz) | MIC (Neisseria sp.; strain Woods) | Zone diameter (Staphylococcus aureus; S. aureus 3055 benzylpenicillin-susceptible, 10 μg./disc) | Zone diameter (Staphylococcus aureus; S. aureus 3055 benzylpenicillin-susceptible, 100 μg./disc) | Zone diameter (Staphylococcus aureus; S. aureus 3074 benzylpenicillin-resistant, 10 μg./disc) | Zone diameter (Staphylococcus aureus; S. aureus 3074 benzylpenicillin-resistant, 100 μg./disc) | Zone diameter (Staphylococcus aureus; S. aureus 3130 benzylpenicillin- and methicillin-resistant, 10 μg./disc) | Zone diameter (Staphylococcus aureus; S. aureus 3130 benzylpenicillin- and methicillin-resistant, 100 μg./disc) | MIC (Enterobacter aerogenes)
NC1C(=O)NC2Cc3ccc(c(Cl)c3)Oc3cc4cc(c3O)Oc3ccc(cc3Cl)C(O)C3NC(=O)C(NC(=O)C4NC(=O)C(NC2=O)c2cc(O)cc(c2)Oc2cc1ccc2O)c1cc(Cl)c(O)c(c1)-c1c(O)cc(O)cc1C(C(=O)O)NC3=O (stereo not drawn) [A41030 factor A] | 4.0 µg/mL (≈ 3.24 µM) | 4.0 µg/mL (≈ 3.24 µM) | 1.0 µg/mL (≈ 0.811 µM) | 8.0 µg/mL (≈ 6.49 µM) | 4.0 µg/mL (≈ 3.24 µM) | 17.2 mm | 20.8 mm | 16.7 mm | 19.8 mm | 17.4 mm | 21.4 mm | 
N[C@H]1C(=O)N[C@@H]2Cc3ccc(c(Cl)c3)Oc3cc4cc(c3O)Oc3ccc(cc3Cl)[C@@H](O)[C@@H]3NC(=O)C(NC(=O)[C@@H]4NC(=O)[C@@H](NC2=O)c2cc(O)cc(c2)Oc2cc1ccc2O)c1ccc(O)c(c1)-c1c(O)cc(O)cc1[C@@H](C(=O)O)NC3=O [A41030 factor B] |  |  |  |  |  |  |  |  |  |  |  | 64 µg/mL (≈ 53.4 µM)

Reference: patent US4559323A, “A41030 Antibiotics” (Eli Lilly and Company, priority 1984, dated 1985)
